Experimental data published in paper PMC5793879 (Cancer cell, 2017).
Read-outs that look alike come from different tables or passages of the source. Bridge positions count the residues as written; N and C are the ends. Square brackets hold non-standard residues; d marks the D form. Peptide text beside a SMILES is read from it. S5 = C=CCCC[C@](C)(N)C(=O)O

Experiments:
[1] = molecular target: BAX trigger site (full-length BAX) (Homo sapiens, UniProt Q07812); format: binding; details: relative to BTSA1
BAX trigger site (full-length BAX), sequence (Q07812 whole entry): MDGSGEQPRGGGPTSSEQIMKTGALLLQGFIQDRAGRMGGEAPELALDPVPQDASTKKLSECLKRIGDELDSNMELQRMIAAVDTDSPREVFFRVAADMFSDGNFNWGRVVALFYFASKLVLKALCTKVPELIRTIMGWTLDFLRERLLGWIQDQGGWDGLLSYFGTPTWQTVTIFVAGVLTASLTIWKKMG

BCL-XL = BCL-XL (Homo sapiens, UniProt Q07817); format: binding; details: BTSA1 at 50 μM
BCL-XL, sequence (Q07817 1-212 limits assumed): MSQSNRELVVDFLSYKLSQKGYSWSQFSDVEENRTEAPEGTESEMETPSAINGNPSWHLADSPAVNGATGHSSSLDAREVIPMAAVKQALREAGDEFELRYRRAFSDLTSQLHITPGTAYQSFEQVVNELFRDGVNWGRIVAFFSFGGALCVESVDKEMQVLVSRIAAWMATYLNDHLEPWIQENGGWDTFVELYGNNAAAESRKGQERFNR

MCL-1 = MCL-1 (Homo sapiens, UniProt Q07820); format: binding
MCL-1, sequence (Q07820 170-327 limits assumed): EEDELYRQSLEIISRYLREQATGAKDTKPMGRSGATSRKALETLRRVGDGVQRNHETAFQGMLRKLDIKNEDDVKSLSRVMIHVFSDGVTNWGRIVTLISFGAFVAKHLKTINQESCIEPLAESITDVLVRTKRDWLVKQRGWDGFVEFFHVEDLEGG

BFL-1/A1 = molecular target: T1, BFL-1/A1 (Homo sapiens, UniProt Q16548); format: binding; details: BTSA1 at 50 μM
T1 sequence (Q16548 1-151 limits assumed): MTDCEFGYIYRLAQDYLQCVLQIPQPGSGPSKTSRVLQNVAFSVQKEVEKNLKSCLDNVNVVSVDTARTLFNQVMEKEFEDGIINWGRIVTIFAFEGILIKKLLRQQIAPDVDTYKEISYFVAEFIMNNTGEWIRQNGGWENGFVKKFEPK

OCI-AML3 cells = assay: Caspase-3/7 activation assay; format: cell-based, human; details: co-treatment with BTSA1
MEF cell lines = assay: Viability assay of MEF cell lines; format: cell-based, mouse
[2] = system: isolated mitochondria from mouse liver; details: without addition of BAX
[3] = system: BAX KO MEF, DKO MEF, wild type MEF, H9c2 myocytes, 3T3 fibroblasts

## CC1=NN(c2nc(-c3ccccc3)cs2)C(=O)C1=NNc1nccs1 [BTSA2]
[1]
  reduction in binding capacity to BAX: ~ 10 fold

## CC[C@H](C)[C@H](NC(=O)[C@H](Cc1c[nH]c2ccccc12)NC(=O)[C@@H](NC(=O)[C@H](CCC(=O)O)NC(C)=O)[C@@H](C)CC)C(=O)N[C@@H](C)C(=O)N[C@@H](CCC(N)=O)C(=O)N[C@@H](CCC(=O)O)C(=O)N[C@@H](CC(C)C)C(=O)N[C@@H](CCCNC(=N)N)C(=O)N[C@@]1(C)CCCC=CCCC[C@@](C)(C(=O)N[C@@H](Cc2ccccc2)C(=O)N[C@@H](CC(N)=O)C(=O)N[C@@H](C)C(=O)N[C@@H](Cc2ccc(O)cc2)C(=O)N[C@@H](Cc2ccc(O)cc2)C(=O)N[C@@H](C)C(N)=O)NC(=O)[C@H](CC(=O)O)NC(=O)CNC(=O)[C@H]([C@@H](C)CC)NC1=O [BIM SAHBA2, reference compound] (Ac-EIWIAQELR[S5]IGD[S5]FNAYYA-NH2; staple 10-14 (inferred))
BCL-XL
  competition of FITC-BIM SAHBA2 binding to BCL-XL: effectively competed
MCL-1; BTSA1 at 50 μM
  competition of FITC-BIM SAHBA2 binding to MCL-1: effectively competed
BFL-1/A1
  competition of FITC-BIM SAHBA2 binding to BFL-1/A1: effectively competed

## OC(CN1CCNCC1)Cn1c2ccc(Br)cc2c2cc(Br)ccc21 (stereo not drawn) [reference compound]
OCI-AML3 cells
  inhibition of BTSA1-mediated apoptosis measured by caspase-3/7 activation: complete inhibition

## O=C1C(=NNc2nccs2)C(c2ccccc2)=NN1c1nc(-c2ccccc2)cs1 [BTSA1]
BCL-XL
  competition of FITC-BIM SAHBA2 binding to BCL-XL: no capacity to compete
MCL-1
  competition of FITC-BIM SAHBA2 binding to MCL-1: no capacity to compete
MEF cell lines
  sensitivity of MEF cell lines: insensitive
[2]
  cytochrome c release: no effect
[3]; BAX KO MEF and DKO MEF, 24 hr
  sensitivity to treatment, cells with no BAX expression: exhibit resistance
[3]; wild type MEF, H9c2 myocytes, 3T3 fibroblasts, doses giving complete cell death in AML cells
  sensitivity to treatment, cells that express BAX: still exhibit resistance

## CC1(C)CCC(c2ccc(Cl)cc2)=C(CN2CCN(c3ccc(C(=O)NS(=O)(=O)c4ccc(N[C@H](CCN5CCOCC5)CSc5ccccc5)c(S(=O)(=O)C(F)(F)F)c4)cc3)CC2)C1 [Navitoclax, reference compound]
MEF cell lines; Mus musculus, MEF, read-out: IC50, viability
  IC50: 1000 to 5000 nM
